Experiment [1] deals with T1, Orexin type 1 (OX1R) receptor (Homo sapiens, UniProt O43613).
T1 construct: expressed in transfected cells; host or cells: CHO cells (G418 selection)
T1 sequence (O43613 1-425): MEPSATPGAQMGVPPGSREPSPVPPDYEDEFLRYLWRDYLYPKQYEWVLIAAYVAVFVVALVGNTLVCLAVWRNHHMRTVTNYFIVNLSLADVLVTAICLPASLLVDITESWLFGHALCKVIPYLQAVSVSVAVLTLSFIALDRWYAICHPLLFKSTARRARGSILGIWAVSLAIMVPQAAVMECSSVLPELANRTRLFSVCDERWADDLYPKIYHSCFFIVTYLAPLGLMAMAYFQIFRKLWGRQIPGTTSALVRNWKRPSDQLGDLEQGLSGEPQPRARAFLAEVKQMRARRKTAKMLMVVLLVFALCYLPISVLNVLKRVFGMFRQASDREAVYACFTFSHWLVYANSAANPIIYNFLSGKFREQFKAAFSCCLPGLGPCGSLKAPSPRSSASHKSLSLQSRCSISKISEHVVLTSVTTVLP
Kind of experiment: In vitro orexin antagonism assay: intracellular calcium measurement (FLIPR), orexin-A 3 nM as agonist. The note with it: for IC50: first value of IC50/Kb cell; for inhibition at 1 µM: read-out: OX1R, % Inh. @ 1 uM; for Kb: second value of IC50/Kb cell. The format is cell-based. As to the method: (§1) In Vitro Orexin Antagonism Measurement Assay: Intracellular Calcium Measurements:
(§2) Chinese hamster ovary (CHO) cells expressing the human […] and the human orexin-2 receptor, respectively, are grown in culture medium (Ham F-12 with L-Glutamine) containing 300 μg/mL G418, 100 U/mL penicillin, 100 μg/mL streptomycin and 10% heat inactivated fetal calf serum (FCS). The cells are seeded at 20,000 cells/well into 384-well black clear bottom sterile plates (Greiner). The seeded plates are incubated overnight at 37° C. in 5% 002. Human orexin-A as an agonist is prepared as 1 mM stock solution in MeOH: water (1:1), diluted in HBSS containing 0.1% bovine serum albumin (BSA), NaHCO3: 0.375 g/L and 20 mM HEPES for use in the assay at a final concentration of 3 nM.
(§3) Antagonists are prepared as 10 mM stock solution in DMSO, then diluted in 384-well plates using DMSO followed by a transfer of the dilutions into in HBSS containing 0.1% bovine serum albumin (BSA), NaHCO3: 0.375 g/L and 20 mM HEPES. On the day of the assay, 50 μL of staining buffer (HBSS containing 1% FCS, 20 mM HEPES, NaHCO3: 0.375 g/L, 5 mM probenecid (Sigma) and 3 μM of the fluorescent calcium indicator fluo-4 AM (1 mM stock solution in DMSO, containing 10% pluronic) is added to each well. The 384-well cell-plates are incubated for 50 min at 37° C. in 5% CO2 followed by equilibration at RT for 30 min before measurement.
(§4) Within the Fluorescent Imaging Plate Reader (FLIPR Tetra, Molecular Devices), antagonists are added to the plate in a volume of 10 μL/well, incubated for 120 min and finally 10 μL/well of agonist is added. Fluorescence is measured for each well at 1 second intervals, and the height of each fluorescence peak is compared to the height of the fluorescence peak induced by 3 nM orexin-A with vehicle in place of antagonist. The IC50 value (the concentration of compound needed to inhibit 50% of the agonistic response) is determined and may be normalized using the obtained IC50 value of an on-plate reference compound. Optimized conditions were achieved by adjustment of pipetting speed and cell splitting regime. The calculated IC50values may fluctuate depending on the daily cellular assay performance. Fluctuations of this kind are known to those skilled in the art.
(In general: Calcium flux is commonly read through the fluorescence of an indicator in the cells.)

Experiment [2] addresses T2, human orexin-2 receptor (OX2R) (Homo sapiens, UniProt O43614).
T2 construct: expressed in transfected cells; host or cells: CHO cells (G418 selection)
T2 sequence (O43614 1-444): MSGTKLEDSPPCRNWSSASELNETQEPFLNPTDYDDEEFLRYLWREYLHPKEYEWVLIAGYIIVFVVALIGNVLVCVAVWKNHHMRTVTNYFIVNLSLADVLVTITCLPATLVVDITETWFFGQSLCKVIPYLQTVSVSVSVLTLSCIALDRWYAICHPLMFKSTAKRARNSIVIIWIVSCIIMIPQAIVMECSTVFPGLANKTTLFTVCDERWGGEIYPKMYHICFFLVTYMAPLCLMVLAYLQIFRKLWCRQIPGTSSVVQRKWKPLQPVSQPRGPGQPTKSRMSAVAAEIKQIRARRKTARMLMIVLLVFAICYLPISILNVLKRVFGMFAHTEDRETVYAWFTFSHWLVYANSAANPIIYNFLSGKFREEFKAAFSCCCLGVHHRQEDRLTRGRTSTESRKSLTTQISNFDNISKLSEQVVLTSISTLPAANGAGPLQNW
The experiment is described as above. The note with it: for inhibition at 1 µM: read-out: OX2R, % Inh. @ 1 uM. Format: cell-based. As to the method: Antagonistic activities on both orexin receptors have been measured for each example compound using the following procedure:
as §1, §2, §3
as §4, with “art. In the case where IC50values have been determined several times for the same compound, the geometric mean has been given.” for “art.”

For orientation: IC50 means the point on the concentration scale where inhibition reaches its midpoint. For orientation: Kb means the affinity of an antagonist, worked out from how it opposes an agonist. In the case of `O=C(c1c(-c2ccccc2)nc2cc(C(F)(F)F)ccn12)N1[C@H](Cn2ccc(-c3ccc(F)cn3)n2)C[C@@H]2C[C@@H]21` [Example 110], in experiment [1], the 50% inhibitory concentration (IC50) was 0.28 µM, the inhibition at 1 µM is 69% and the Kb came to 0.06 µM. In experiment [2], the inhibition at 1 µM amounted to 42%.
With `O=C(c1c(-c2ccccc2)nn2c1COCC2)N1CCOC[C@H]1COc1ccc(C(F)(F)F)cn1` [Example 113], the inhibition at 1 µM stood at 12% in experiment [1] and 8% in experiment [2].
Taken in the same sequence, the figures for `O=C(c1c(-c2ccccc2)nn2ccccc12)N1CCOC[C@H]1COc1ccc(C(F)(F)F)cn1` [Example 114] were 14% and 6%.
Taken in the same sequence, the figures for `O=C(c1c(-c2ccccc2)nn2c1COCC2)N1CCC[C@H]1Cc1nc(-c2ccc(F)cn2)no1` [Example 116] were 10% and 19%.
Take `O=C(c1c(-c2ccccc2)nc2ccc(F)cn12)N1CCC[C@H]1Cc1nc(-c2ccc(F)cn2)no1` [Example 121]: the inhibition at 1 µM in experiment [1] worked out at 44%; in experiment [2], 45%.
On to `O=C(c1nc2ccccn2c1-c1ccccc1)N1CCC[C@H]1Cn1ccc(-c2ccc(F)cn2)n1` [Example 123], for which, in experiment [1] (@ 1 uM), the “OX1R, % Inh. @ 1 uM” value was determined as 100%. In addition, in experiment [2] (@ 1 uM), the “OX2R, % Inh. @ 1 uM” value was 42%.
For the compound `O=C(c1nc2ccccn2c1-c1ccccc1)N1CCC[C@H]1COc1ccc(C(F)(F)F)cn1` [Example 124], in experiment [1], the IC50 amounted to 0.005 µM, the inhibition at 1 µM is 100% and the antagonist equilibrium constant (Kb) was 0.001 µM. For the same compound, in experiment [2], the inhibition at 1 µM worked out at 36%.
In the case of `O=C(c1nn2c(c1-c1ccccc1)OCCC2)N1CCC[C@H]1COc1ccc(C(F)(F)F)cn1` [Example 142], in experiment [1], the IC50 worked out at 0.006 µM, the inhibition at 1 µM amounted to 100% and the antagonist dissociation constant (Kb) is 0.001 µM. Moreover, the inhibition at 1 µM in experiment [2] was 42%.
Taken in the same sequence, the figures for `O=C(c1nn2c(c1-c1ccccc1)COCC2)N1C2CCC1(COc1ccc(C(F)(F)F)cn1)CC2` [Example 159] were 0.048 µM, 86%, 0.01 µM and 15%.
In the case of `O=C(c1nc2ccccn2c1-c1ccccc1)N1C2CCC1(COc1ccc(C(F)(F)F)cn1)CC2` [Example 160], in experiment [1], the half-inhibitory concentration (IC50) stood at 0.024 µM, the inhibition at 1 µM was 98% and the antagonist equilibrium constant (Kb) came to 0.005 µM. For the same compound, the inhibition at 1 µM in experiment [2] turned out to be 2%.
`O=C(c1c(-c2ncccn2)nn2ccccc12)N1C2CCC1(COc1ccc(C(F)(F)F)cn1)CC2` [Example 161]: the inhibition at 1 µM was 44% in experiment [1] and 6% in experiment [2].
For `C[C@@]1(COc2cnc(C(F)(F)F)cn2)CCCN1C(=O)c1nn2c(c1-c1ccccc1)COCC2` [Example 162] the same measures were 36% and 0%.
Regarding `C[C@@]1(COc2cnc(C(F)(F)F)cn2)CCCN1C(=O)c1nc2ccccn2c1-c1ccccc1` [Example 163], in experiment [1], the concentration for half-maximal inhibition (IC50) is 0.771 µM, the inhibition at 1 µM was 75% and the antagonist equilibrium constant (Kb) turned out to be 0.162 µM. In addition, the inhibition at 1 µM in experiment [2] came to 11%.
Taken in the same sequence, the figures for `C[C@@]1(COc2cnc(C(F)(F)F)cn2)CCCN1C(=O)c1c(-c2ccccn2)nn2ccccc12` [Example 164] were 0.305 µM, 84%, 0.064 µM and 20%.
`C[C@@]1(COc2cnc(C(F)(F)F)cn2)CCCN1C(=O)c1nn2c(c1-c1ccccc1)OCCC2` [Example 165]: the inhibition at 1 µM stood at 50% in experiment [1] and 6% in experiment [2].
Taken in the same sequence, the figures for `C[C@@]1(COc2cnc(C(F)(F)F)cn2)CCCN1C(=O)c1c(-c2ncccn2)nn2ccccc12` [Example 166] were 53% and 10%.
Take `C[C@@]1(COc2cnc(C(F)(F)F)cn2)CCCN1C(=O)c1nn2cccnc2c1-c1ccccc1` [Example 167]: in experiment [1], the IC50 came out at 0.326 µM, the inhibition at 1 µM came out at 82% and the antagonist dissociation constant (Kb) was 0.069 µM. In experiment [2], the inhibition at 1 µM is 20%.
Taken in the same sequence, the figures for `C[C@@]1(COc2cnc(C(F)(F)F)cn2)CCCN1C(=O)c1c(-c2ccccc2)nn2cccnc12` [Example 168] were 0.475 µM, 72%, 0.1 µM and 28%.
Regarding `C[C@@]1(COc2cnc(C(F)(F)F)cn2)CCCN1C(=O)c1c(-c2ccccc2)nn2c1COCC2` [Example 169], the inhibition at 1 µM in experiment [1] came out at 2%; in experiment [2], 15%.
For the compound `C[C@@]1(COc2cnc(C(F)(F)F)cn2)CCCN1C(=O)c1nn2ccccc2c1-c1ccccc1` [Example 170], in experiment [1], the IC50 is 0.46 µM, the inhibition at 1 µM was 85% and the antagonist dissociation constant (Kb) worked out at 0.097 µM. The inhibition at 1 µM in experiment [2] came out at 23%.
In the case of `O=C(c1nn2ccccc2c1-c1ccccn1)N1CCC[C@H]1Cc1nc(-c2ccccn2)no1` [Example 175], in experiment [1], the concentration for half-maximal inhibition (IC50) was found to be 0.011 µM, the inhibition at 1 µM was 93% and the Kb was 0.002 µM. Besides, in experiment [2], the inhibition at 1 µM was found to be 29%.
For `O=C(c1nn2ccccc2c1-c1ccccn1)N1CCC[C@H]1Cc1nc(-c2ccc(F)cn2)no1` [Example 176] the same measures were 0.012 µM, 93%, 0.002 µM and 40%.
For `O=C(c1nc2ccccn2c1-c1ccccn1)N1CCC[C@H]1COc1ccc(C(F)(F)F)cn1` [Example 179] the same measures were 0.008 µM, 99%, 0.002 µM and 12%.
Take `O=C(c1nc2ccccn2c1-c1ccccn1)N1CCC[C@H]1Cn1ccc(-c2ccccn2)n1` [Example 180]: in experiment [1], the IC50 was found to be 0.017 µM, the inhibition at 1 µM was 97% and the Kb was 0.004 µM. In addition, the inhibition at 1 µM in experiment [2] came out at 27%.
For `O=C(c1nn2ccccc2c1-c1ccccn1)N1CCC[C@H]1Cn1ccc(-c2ccc(F)cn2)n1` [Example 182] the same measures were 0.019 µM, 96%, 0.004 µM and 59%.
On to `O=C(c1nc2n(c1-c1ccccn1)CCOC2)N1CCC[C@H]1COc1ccc(C(F)(F)F)cn1` [Example 184], for which the inhibition at 1 µM was 42% in experiment [1] and 10% in experiment [2].

The values above are taken from US20260070922A1, “PYRAZOLE AND IMIDAZOLE DERIVATIVES AS DUAL OREXIN AND KAPPA-OPIOID RECEPTORS MODULATORS COMPOSITION, METHODS FOR TREATING NEUROLOGICAL AND PSYCHIATRIC DISORDERS” (HAGER BIOSCIENCES, LLC, priority 2022, published 2026).
